Key:
bile-deficient rats [1] = assay: Absorption of 3H-stearic acid with oral DIMEB in bile-deficient rats (Example 11); assay type: in vivo, CFY female rats; conditions: for Radioactivity in 10 ml of blood: 23.5 mg 3H-stearic acid + 60 mg DIMEB oral
Protocol: The substitution by DIMEB of the bile in bile-deficiency was studied in rats after ligating the bile duct.
After being starved for 24 hours, the animals (CFY female rats with an average body weight of 150 g) were subjected to a bile duct-ligation under nembutal anaesthesia. The absorption was investigated in the 48th hour after starving the animals overnight. The animals were starved in the course of the examination, too, but received water ad libitum. One group (consisting of 4 animals) received 22.2 mg of ^3 H-stearic acid (specific radioactivity: 92.5 kBq/mg), whereas the other group (consisting of 4 animals) was administered 23.5 mg of ^3 H-stearic acid and 60 mg of DIMEB in 2 ml of distilled water. The substances were suspended ultrasonically in the distilled water. Thereafter, the radioactivity level of the blood was measured at various intervals by using the liquid scintillation method (Table XII).

bile-deficient rats [2] = assay: Substitution of the bile in rats: 5-day fat treatment, faecal, plasma and liver lipids; assay type: in vivo, rats (Etymis rattus var. albino)
Protocol: In an other series of experiments, the total lipid content of the faeces discharged by bile-deficient rats was studied.
The oral treatment was started with the daily administration of 1 ml of swine fat or 1 ml of swine fat together with 150 mg of DIMEB, respectively, in the 72nd hour following the ligature. The treatment was continued for 5 days. The faeces was collected in the first 4 days of the treatment. In the 4th hour following the treatment on the 5th day, the experimental animals were decapitated and their samples were worked up. […] An extraordinarily high amount of lipids were eliminated with the faeces of the animals fed with fat. […] Nearly 100 percent of the introduced fat was absorbed under the effect of DIMEB.
A significant deviation was observed between the groups treated with fat or with fat together with DIMEB, respectively. […] The triglyceride concentration was restored in this group to the control value by the treatment with fat. A significant increase in the triglyceride concentration was induced by the treatment with fat together with DIMEB in comparison to the former group.

bile-deficient rats [3] = assay: Absorption of 3H-stearic acid with oral DIMEB in bile-deficient rats (Example 10); assay type: in vivo; conditions: for Radioactivity in 10 ml of blood: 14.7 mg 3H-stearic acid + 50 mg DIMEB oral
Protocol: The substitution of the bile by DIMEB in bile-deficiency was studied in rats after ligating the bile duct.
After being starved for 24 hours, the animals were subjected to the bile duct-ligation under nembutal anaesthesia. The absorption was investigated in the 48th hour after starving the animals overnight. The animals were also starved in the course of the examination; but received water ad libitum. One group (3 animals) received 12.8 mg of ^3 H-stearic acid (specific radioactivity: 171.12 kBq/mg), whereas the other group (3 animals) was administered 14.7 mg of ^3 H-stearic acid and 50 mg of DIMEB in 2 ml of distilled water. The substances were suspended in the distilled water ultrasonically. Thereafter, the radioactivity level of the blood was measured at various intervals, by using the liquid scintillation method (Table XI).

[4] = Absorption and elimination of DIMEB in animal experiments; assay type: in vivo
[5] = bile acid-deficient rats, daily 1 ml fat + 150 mg DIMEB, treatment lasting 5 days

For `COC[C@H]1O[C@@H]2O[C@H]3[C@H](O)[C@@H](OC)[C@@H](O[C@H]4[C@H](O)[C@@H](OC)[C@@H](O[C@H]5[C@H](O)[C@@H](OC)[C@@H](O[C@H]6[C@H](O)[C@@H](OC)[C@@H](O[C@H]7[C@H](O)[C@@H](OC)[C@@H](O[C@H]8[C@H](O)[C@@H](OC)[C@@H](O[C@H]1[C@H](O)[C@H]2OC)O[C@@H]8COC)O[C@@H]7COC)O[C@@H]6COC)O[C@@H]5COC)O[C@@H]4COC)O[C@@H]3COC` [DIMEB, heptakis(2,6-di-O-methyl)-β-cyclodextrin], the “Radioactivity in 10 ml of blood” value (bile-deficient rats [1]; 1 h, animal 5) was 1.18 percentage, the “Radioactivity in 10 ml of blood” value (bile-deficient rats [1]; 1 h, animal 6) was 1.41 percentage and the “Radioactivity in 10 ml of blood” value (bile-deficient rats [1]; 1 h, animal 7) was 1.66 percentage. The “Radioactivity in 10 ml of blood” value (bile-deficient rats [1]; 1 h, animal 8) was 0.50 percentage, the “Radioactivity in 10 ml of blood” value (bile-deficient rats [1]; 1 h, mean) was 1.19 percentage and the “Radioactivity in 10 ml of blood” value (bile-deficient rats [1]; 2 h, animal 5) was 1.46 percentage. The “Radioactivity in 10 ml of blood” value (bile-deficient rats [1]; 2 h, animal 6) was 1.52 percentage, the “Radioactivity in 10 ml of blood” value (bile-deficient rats [1]; 2 h, animal 7) was 1.52 percentage and the “Radioactivity in 10 ml of blood” value (bile-deficient rats [1]; 2 h, animal 8) was 0.64 percentage. The “Radioactivity in 10 ml of blood” value (bile-deficient rats [1]; 2 h, mean) was 1.28 percentage, the “Radioactivity in 10 ml of blood” value (bile-deficient rats [1]; 3 h, animal 5) was 1.29 percentage and the “Radioactivity in 10 ml of blood” value (bile-deficient rats [1]; 3 h, animal 6) was 1.63 percentage. For the same compound, the “Radioactivity in 10 ml of blood” value (bile-deficient rats [1]; 3 h, animal 7) was 1.37 percentage, the “Radioactivity in 10 ml of blood” value (bile-deficient rats [1]; 3 h, animal 8) was 0.61 percentage and the “Radioactivity in 10 ml of blood” value (bile-deficient rats [1]; 3 h, mean) was 1.22 percentage. The “Radioactivity in 10 ml of blood” value (bile-deficient rats [1]; 4 h, animal 5) was 1.42 percentage, the “Radioactivity in 10 ml of blood” value (bile-deficient rats [1]; 4 h, animal 6) was 1.67 percentage and the “Radioactivity in 10 ml of blood” value (bile-deficient rats [1]; 4 h, animal 7) was 1.56 percentage. For the same compound, the “Radioactivity in 10 ml of blood” value (bile-deficient rats [1]; 4 h, animal 8) was 0.60 percentage, the “Radioactivity in 10 ml of blood” value (bile-deficient rats [1]; 4 h, mean) was 1.31 percentage and the “Radioactivity in 10 ml of blood” value (bile-deficient rats [1]; 5 h, animal 5) was 1.39 percentage. The “Radioactivity in 10 ml of blood” value (bile-deficient rats [1]; 5 h, animal 6) was 1.73 percentage, the “Radioactivity in 10 ml of blood” value (bile-deficient rats [1]; 5 h, animal 7) was 1.54 percentage and the “Radioactivity in 10 ml of blood” value (bile-deficient rats [1]; 5 h, animal 8) was 0.69 percentage. For the same compound, the “Radioactivity in 10 ml of blood” value (bile-deficient rats [1]; 5 h, mean) was 1.34 percentage, the “Radioactivity in 10 ml of blood” value (bile-deficient rats [1]; 6 h, animal 5) was 1.41 percentage and the “Radioactivity in 10 ml of blood” value (bile-deficient rats [1]; 6 h, animal 6) was 1.92 percentage. For the same compound, the “Radioactivity in 10 ml of blood” value (bile-deficient rats [1]; 6 h, animal 7) was 1.76 percentage, the “Radioactivity in 10 ml of blood” value (bile-deficient rats [1]; 6 h, animal 8) was 0.73 percentage and the “Radioactivity in 10 ml of blood” value (bile-deficient rats [1]; 6 h, mean) was 1.45 percentage. The “Radioactivity in 10 ml of blood” value (bile-deficient rats [1]; 8 h, animal 5) was 1.43 percentage, the “Radioactivity in 10 ml of blood” value (bile-deficient rats [1]; 8 h, animal 6) was 1.90 percentage and the “Radioactivity in 10 ml of blood” value (bile-deficient rats [1]; 8 h, animal 7) was 1.85 percentage. The “Radioactivity in 10 ml of blood” value (bile-deficient rats [1]; 8 h, animal 8) was 0.72 percentage, the “Radioactivity in 10 ml of blood” value (bile-deficient rats [1]; 8 h, mean) was 1.47 percentage and the “Radioactivity in 10 ml of blood” value (bile-deficient rats [1]; 10 h, animal 5) was 1.57 percentage. The “Radioactivity in 10 ml of blood” value (bile-deficient rats [1]; 10 h, animal 6) was 1.56 percentage, the “Radioactivity in 10 ml of blood” value (bile-deficient rats [1]; 10 h, animal 7) was 1.45 percentage and the “Radioactivity in 10 ml of blood” value (bile-deficient rats [1]; 10 h, animal 8) was 0.89 percentage. For the same compound, the “Radioactivity in 10 ml of blood” value (bile-deficient rats [1]; 10 h, mean) was 1.37 percentage, the “Radioactivity in 10 ml of blood” value (bile-deficient rats [1]; 24 h, animal 5) was 1.50 percentage and the “Radioactivity in 10 ml of blood” value (bile-deficient rats [1]; 24 h, animal 6) was 1.94 percentage. The “Radioactivity in 10 ml of blood” value (bile-deficient rats [1]; 24 h, animal 7) was 1.59 percentage, the “Radioactivity in 10 ml of blood” value (bile-deficient rats [1]; 24 h, animal 8) was 1.95 percentage and the “Radioactivity in 10 ml of blood” value (bile-deficient rats [1]; 24 h, mean) was 1.74 percentage. For the same compound, the “Blood level relative to animals treated with stearic acid alone” value (bile-deficient rats [1]; 24th hour) was 2 times, the “Blood radioactivity relative to animals treated with stearic acid alone” value (bile-deficient rats [1]; time not given) was 4.4 times and the “Fat discharge (total lipid content of the faeces)” value (bile-deficient rats [2]; bile acid-deficient rats, daily 1 ml fat + 150 mg DIMEB for 5 days, faeces of first 4 days) was 6.16 ± 2.37 g/100 g. For the same compound, the Liver triglycerides (bile-deficient rats [2]; [5]) was 9.1 ± 2.2 mg/100 ml, the Plasma total lipids (bile-deficient rats [2]; [5]) was 688.7 ± 95.8 mg/100 ml and the Plasma triglycerides (bile-deficient rats [2]; [5]) was 71.9 ± 19.1 mg/100 ml. The Introduced fat absorbed (bile-deficient rats [2]; bile-deficient rats, daily 1 ml swine fat + 150 mg DIMEB) was ~100%, the “Radioactivity in 10 ml of blood” value (bile-deficient rats [3]; 1 h, animal 4) was 0.86 percentage and the “Radioactivity in 10 ml of blood” value (bile-deficient rats [3]; 1 h, animal 5) was 3.45 percentage. For the same compound, the “Radioactivity in 10 ml of blood” value (bile-deficient rats [3]; 1 h, animal 6) was 1.61 percentage, the “Radioactivity in 10 ml of blood” value (bile-deficient rats [3]; 1 h, mean) was 1.97 percentage and the “Radioactivity in 10 ml of blood” value (bile-deficient rats [3]; 2 h, animal 4) was 1.05 percentage. For the same compound, the “Radioactivity in 10 ml of blood” value (bile-deficient rats [3]; 2 h, animal 5) was 3.25 percentage, the “Radioactivity in 10 ml of blood” value (bile-deficient rats [3]; 2 h, animal 6) was 2.56 percentage and the “Radioactivity in 10 ml of blood” value (bile-deficient rats [3]; 2 h, mean) was 2.29 percentage. The “Radioactivity in 10 ml of blood” value (bile-deficient rats [3]; 3 h, animal 4) was 1.14 percentage, the “Radioactivity in 10 ml of blood” value (bile-deficient rats [3]; 3 h, animal 5) was 3.22 percentage and the “Radioactivity in 10 ml of blood” value (bile-deficient rats [3]; 3 h, animal 6) was 2.39 percentage. For the same compound, the “Radioactivity in 10 ml of blood” value (bile-deficient rats [3]; 3 h, mean) was 2.25 percentage, the “Radioactivity in 10 ml of blood” value (bile-deficient rats [3]; 4 h, animal 4) was 1.19 percentage and the “Radioactivity in 10 ml of blood” value (bile-deficient rats [3]; 4 h, animal 5) was 3.06 percentage. For the same compound, the “Radioactivity in 10 ml of blood” value (bile-deficient rats [3]; 4 h, animal 6) was 2.28 percentage, the “Radioactivity in 10 ml of blood” value (bile-deficient rats [3]; 4 h, mean) was 2.18 percentage and the “Radioactivity in 10 ml of blood” value (bile-deficient rats [3]; 5 h, animal 4) was 1.24 percentage. The “Radioactivity in 10 ml of blood” value (bile-deficient rats [3]; 5 h, animal 5) was 3.08 percentage, the “Radioactivity in 10 ml of blood” value (bile-deficient rats [3]; 5 h, animal 6) was 2.27 percentage and the “Radioactivity in 10 ml of blood” value (bile-deficient rats [3]; 5 h, mean) was 2.20 percentage. For the same compound, the “Radioactivity in 10 ml of blood” value (bile-deficient rats [3]; 6 h, animal 4) was 1.25 percentage, the “Radioactivity in 10 ml of blood” value (bile-deficient rats [3]; 6 h, animal 5) was 2.91 percentage and the “Radioactivity in 10 ml of blood” value (bile-deficient rats [3]; 6 h, animal 6) was 2.56 percentage. For the same compound, the “Radioactivity in 10 ml of blood” value (bile-deficient rats [3]; 6 h, mean) was 2.24 percentage, the “Radioactivity in 10 ml of blood” value (bile-deficient rats [3]; 7 h, animal 4) was 1.33 percentage and the “Radioactivity in 10 ml of blood” value (bile-deficient rats [3]; 7 h, animal 5) was 3.03 percentage. The “Radioactivity in 10 ml of blood” value (bile-deficient rats [3]; 7 h, animal 6) was 2.67 percentage, the “Radioactivity in 10 ml of blood” value (bile-deficient rats [3]; 7 h, mean) was 2.34 percentage and the “Radioactivity in 10 ml of blood” value (bile-deficient rats [3]; 8 h, animal 4) was 1.37 percentage. For the same compound, the “Radioactivity in 10 ml of blood” value (bile-deficient rats [3]; 8 h, animal 5) was 3.13 percentage, the “Radioactivity in 10 ml of blood” value (bile-deficient rats [3]; 8 h, animal 6) was 2.58 percentage and the “Radioactivity in 10 ml of blood” value (bile-deficient rats [3]; 8 h, mean) was 2.36 percentage. For the same compound, the “Radioactivity in 10 ml of blood” value (bile-deficient rats [3]; 10 h, animal 4) was 1.29 percentage, the “Radioactivity in 10 ml of blood” value (bile-deficient rats [3]; 10 h, animal 5) was 3.26 percentage and the “Radioactivity in 10 ml of blood” value (bile-deficient rats [3]; 10 h, animal 6) was 2.67 percentage. For the same compound, the “Radioactivity in 10 ml of blood” value (bile-deficient rats [3]; 10 h, mean) was 2.41 percentage, the “Radioactivity in 10 ml of blood” value (bile-deficient rats [3]; 24 h, animal 4) was 1.60 percentage and the “Radioactivity in 10 ml of blood” value (bile-deficient rats [3]; 24 h, animal 5) was 4.56 percentage. The “Radioactivity in 10 ml of blood” value (bile-deficient rats [3]; 24 h, animal 6) was 4.00 percentage, the “Radioactivity in 10 ml of blood” value (bile-deficient rats [3]; 24 h, mean) was 3.39 percentage and the “Blood level relative to animals treated with stearic acid only” value (bile-deficient rats [3]; 24th hour) was 1.4 times. For the same compound, the “Time to complete elimination through the kidneys” value ([4]; after intravenous administration) was ≤ 6 h and the “Absorption after oral administration” value ([4]; animal experiments, oral) was “not absorbed”.
